Tested on: C57BL/6 mice
Assay: elevated plus maze model of anxiety disorder
Type: in vivo
Description: The dosage ranges are based upon our preclinical rodent studies testing the anti-anxiety effects of formula (I) and crocin (across varying doses and combinations) on mouse behavior in the elevated plus maze task (see FIG. 1). The elevated plus maze is one of the most widely used tests for measuring anxiety-like behavior and the anti-anxiety effects of pharmacological agents and is based on the natural aversion of mice for open and elevated areas, as well as their natural spontaneous exploratory activity in novel environments. […] Finally, these dosage ranges, as identified from our preclinical studies are commensurate with clinical dosages safely prescribed in humans.
The elevated plus maze model is a behavioral assay for rodents which has been used to assess the […] effect of pharmacological agents. In the model, anxiety behavior of rodents is assessed by determining the ratio of time spent on the arms relative to the time spent in the closed arms of the elevated plus maze structure. The model relies on rodents' affinity to dark, enclosed spaces.
In the elevated plus model, C57BL/6 mice, aged between 6 and 7 weeks were acclimated for at least five days and assigned randomly to treatment groups. Mice were housed on a 12 hour light/dark cycle. No more than 4 mice were kept in each ventilated cage. Mice were provided with standard rodent chow and water ad libitum. Test compounds were administered through the oral route in a volume of 10 milliliters per kilogram (ml/kg) and were formulated in 0.9% saline. 12 groups of mice were tested in the model, each group consisting of 10 mice. After acclimation, test compositions were administered to the animals in the amounts, in milligram per kilogram of mouse weight (mg/kg) according to table 1.
As shown in the table, Group 1 was administered vehicle only. Groups 2 through 7 were administered various combinations of psilocybin and crocin. Groups 8-12 were administered either psilocybin alone or crocin alone. Behavioral testing was performed between 7-9 days after administration of the compounds.
Testing was performed in dim light of 40 lux. The elevated plus maze consists of two open and two closed arms (arm length: 30 cm; width: 5 cm). Open arms have a small 1 cm edge and the closed arms are bordered by a 15 cm wall. At the beginning of the task, mice were placed in the center of the elevated plus maze facing an open arm. Mice were video tracked while exploring the maze for 5 min. The time spent in the open and closed arms was measured and analyzed.
Comparisons were performed using 1 w-ANOVA, Fisher's LSD test. Significance is shown with a single asterisk if P<0.05, with a double asterisk if P<0.01, and with a triple asterisk if P<0.001.

| Compound | time in open arms of elevated plus maze vs vehicle (psilocybin 0.5 mg/kg and higher, administered on its own) | time in open arms of elevated plus maze vs vehicle (psilocybin alone 0.1 mg/kg oral, tested 7-9 days after administration, 5 min) | time in open arms of elevated plus maze vs vehicle (psilocybin alone 0.5 mg/kg oral, tested 7-9 days after administration, 5 min) | time in open arms of elevated plus maze vs vehicle (psilocybin alone 1 mg/kg oral, tested 7-9 days after administration, 5 min) | time in open arms of elevated plus maze vs vehicle (crocin alone 30 mg/kg oral, tested 7-9 days after administration, 5 min) | time in open arms of elevated plus maze vs vehicle (crocin alone 50 mg/kg oral, tested 7-9 days after administration, 5 min) |
| --- | --- | --- | --- | --- | --- | --- |
| CN(C)CCc1c[nH]c2cccc(OP(=O)(O)O)c12 [psilocybin, Psilocybin] | either no changes in mouse behavior were observed, or increased anxiety-like behavior | no significant difference | significant reduction in open arm time | significant reduction in open arm time |  |  |
| CC(/C=C/C=C(\C)C(=O)O[C@@H]1O[C@H](CO[C@@H]2O[C@H](CO)[C@@H](O)[C@H](O)[C@H]2O)[C@@H](O)[C@H](O)[C@H]1O)=C\C=C\C=C(C)\C=C\C=C(/C)C(=O)O[C@@H]1O[C@H](CO[C@@H]2O[C@H](CO)[C@@H](O)[C@H](O)[C@H]2O)[C@@H](O)[C@H](O)[C@H]1O [crocin, Crocin] |  |  |  |  | did not show a significant beneficial effect on anxiety | did not show a significant beneficial effect on anxiety |
